Data as given in patent US8426136B2, “Epigenetic modifications at TNFα as biomarkers for sensitivity to Smac mimetic-induced apoptosis” (Joyant Pharmaceuticals, Inc., priority 2009, dated 2013).

Key:
TNFα mRNA [1] = assay: TNFα mRNA by RT-PCR in H2073 cells; assay type: cell-based, human; conditions: FIG. 5 legend
Experimental: (§1) This procedure describes the semi-quantitative measurement of human TNFα mRNA levels in human cell culture.
(§2) Cell Treatment: cells were plated in 6 well dishes at 1.5×10^5 cells/ml in a volume of 2.5 ml, next day cells were treated −/+50 ul of 5 μM Smac Mimetic, JP1010, (final concentration: 100 nM) for 4 hr.
(§3) RNA Isolation: cells were washed 2× with 2 ml PBS followed by isolation of RNA from 6 well dishes using Qiagen RNAeasy kit or TRIzol reagent (Invitrogen) according to manufacturer's protocol. RNA isolation with TRIzol was conducted by adding 1 ml of TRIzol reagent to each well and pipetting up and down several times before transferring lysate to 1.5 ml microfuge tube. […] RNA concentration was measured. […]
(§4) Semi-quantitative RT-PCR for TNFα and Actin were performed as follows: Control semi-quantitative Actin PCR were conducted in a 25 ul reaction mixture with the following cycle condition: 94° C. […] TNFa semi quantitative PCR were conducted in a 25 ul reaction mixture with the following cycle conditions: 94° C.-2 min, 30-35 cycles (depending on cell line) of 94° C.-30 sec, 59° C.-30 sec, 72° C.-1 min, followed by 72° C. for 10 min. […]

[2] = tested on: acetylated Histone H4 levels at the TNFα locus; assay: ChIP of acetylated histone H4 at the TNFα locus in MDA-MB231 cells; assay type: cell-based; conditions: 5 mM NaBu
Experimental: Purpose: This procedure evaluates the localization of specific proteins or their modified forms on chromatin. For our purpose to specifically evaluate the levels of modified histones and cofactors bound to the Tumor Necrosis Factor (TNFa) gene promoter.
ChIP Lysis buffer contained 1% SDS, 10 mM EDTA, 50 mM Tris-HCl, pH8.1, 1× protease inhibitor cocktail (Roche). ChIP Dilution buffer contained 1% Triton x-100, 2 mM EDTA, 150 mM NaCl, 20 mM Tris-HCl, pH8.1, 1× protease inhibitor cocktail (Roche). Wash Buffer I contained 0.1% SDS, 1% Triton x-100, 2 mM EDTA, 150 mM NaCl, 20 mM Tris-HCl, pH8.1. Wash Buffer II contained wash buffer I with 500 mM NaCl. Wash Buffer III contained 0.25M LiCl, 1% NP-40, 1% deoxycholate, 1 mM EDTA, 10 mM Tris-HCl, pH8.1. TE buffer contained 10 mM Tris-HCl, pH 7.5, 0.1 mM EDTA. ChIP Extraction buffer contained 1% SDS, 0.1M NaHCO3. Antibodies used include anti-histone H3 (Abcam, ab1791), anti-hyperacetylated histone H4 (Millipore, 06-946), anti-dimethyl-histone H3k4 (Millipore, 07-030), anti-dimethyl histone H3K9 (Abcam, ab1220), anti-histone H4 (Millipore, 05-858), anti-acetylated H3 (Millipore, 06-599), anti-acetylated H4 (Millipore, 06-866).
Cells were plated on either 10 cm or 15 cm tissue culture dishes (˜1×10^6). At 80-100% confluency cells were crosslinked by the addition of 37% formaldehyde (final concentration 1%) directly to the cell medium. […]

cIAP2 mRNA = cIAP2 mRNA level in Colo205 cells; assay type: cell-based; conditions: MS-275 alone
TNFα mRNA [3] = assay: TNFα mRNA by semiquantitative RT-PCR in Colo205 cells; assay type: cell-based, human
Experimental: as §1, §2, §3, §4

Structure (SMILES) | Smac mimetic-induced TNFα production (TNFα mRNA [1]) | increase of the level of acetylated H4 [2] | mRNA level of cIAP2 (cIAP2 mRNA) | Smac mimetic-induced TNFα production (TNFα mRNA [3]; FIG. 4 legend) | production of TNFα mRNA (TNFα mRNA [3]; agent alone)
CCCC(=O)[O-].[Na+] [NaBu, Sodium butyrate] | increases | 4-5 fold | – | – | –
Nc1ccccc1NC(=O)c1ccc(CNC(=O)OCc2cccnc2)cc1 [MS-275] | – | – | increased | Primes | increased
